Results: patent US9210927B2, “Pesticidal compositions and processes related thereto” (Dow AgroSciences LLC, priority 2013, dated 2015)

Experiments:
Format in all cases: in vivo
[1] = test system: CEW (Helicoverpa zea); experiment: Bioassays on Corn Earworm (CEW), 128-well diet tray assay; conditions: Helicoverpa zea, 168 h; percent mortality, second instar larvae, 50 μg/cm^2 on artificial diet, five to seven days, 25° C.; read-out: CEW Rating
Procedure, shortened: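 Percent larval mortality, averaged across eight wells, read after five to seven days at 25 °C under 14:10 light-dark. Each well held one to five second-instar larvae on diet surface-dosed at 50 μg/cm^2 (compound applied in acetone-water 90:10, then dried).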

[2] = test system: BAW (Spodoptera exigua); experiment: Bioassays on Beet Armyworm (BAW), 128-well diet tray assay; conditions: Spodoptera exigua, 168 h, read-out: BAW Rating
Procedure, shortened: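 Diet surface dosed at 50 μg/cm^2 (acetone-water 90:10 vehicle), dried, then infested with second-instar larvae, one to five per well. After five to seven days at 25° C. under 14:10 light-dark, mortality per well was scored and averaged over eight wells.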

[3] = test system: GPA (Myzus persicae); experiment: Bioassays on Green Peach Aphid (GPA), foliar spray on cabbage seedlings; conditions: 72 h, corrected % control (Abbott), 200 ppm spray on cabbage seedlings, three days, read-out: GPA Rating
Method: Bioassays on Green Peach Aphid (“GPA”) (Myzus persicae) Certain molecules disclosed in this document were tested against GPA using procedures described in the following example. In the reporting of the results, the “GPA Rating Table” was used (See Table Section). Cabbage seedlings grown in 3-inch pots, with 2-3 small (3-5 cm) true leaves, were used as test substrate. The seedlings were infested with 20-50 GPA (wingless adult and nymph stages) one day prior to chemical application. Four pots with individual seedlings were used for each treatment. Test compounds (2 mg) were dissolved in 2 mL of acetone/MeOH (1:1) solvent, forming stock solutions of 1000 ppm test compound. The stock solutions were diluted 5× with 0.025% Tween 20 in H2O to obtain the solution at 200 ppm test compound. A hand-held aspirator-type sprayer was used for spraying a solution to both sides of […] leaves until runoff. Reference plants (solvent check) were sprayed with the diluent only containing 20% by volume of acetone/MeOH (1:1) solvent. Treated plants were held in a holding room for three days at approximately 25° C. and ambient relative humidity (RH) prior to grading. Evaluation was conducted by counting the number of live aphids per plant under a microscope. Percent Control was measured by using Abbott's correction formula (W. S. Abbott, “A Method of Computing the Effectiveness of an Insecticide” J. Econ. Entomol. 18 (1925), pp. 265-267) as follows. Corrected % Control=100*(X−Y)/X • where • X=No. of live aphids on solvent check plants and • Y=No. of live aphids on treated plants The results are indicated in the table entitled “Table 3: Assay Results” (See Table Section).

Row | Compound | pest or weed control at 50 µg/cm2 [1] [%] | pest or weed control at 50 µg/cm2 [2] [%] | pest or weed control at 200 ppm [3] [%]
1 | Cc1cc(/C=C/C(c2cc(Cl)c(Cl)c(Cl)c2)C(F)(F)F)ccc1C(=O)NC(C)(C)c1ccccn1 (stereo not drawn) [AC27] | 50 to 100 | 50 to 100 | 0 to 80
2 | O=C(NCc1ccc(Cl)nc1)c1ccc(/C=C/C(c2cc(Cl)c(Cl)c(Cl)c2)C(F)(F)F)cc1Cl (stereo not drawn) [AC28] | 50 to 100 | 50 to 100 | 0 to 80
3 | O=C(NC1CSC1)c1ccc(/C=C/C(c2cc(Cl)c(Cl)c(Cl)c2)C(F)(F)F)cc1Cl (stereo not drawn) [AC29] | 50 to 100 | 50 to 100 | 0 to 80
4 | O=C(NC1CS(=O)(=O)C1)c1ccc(/C=C/C(c2cc(Cl)c(Cl)c(Cl)c2)C(F)(F)F)cc1Cl (stereo not drawn) [AC30] | 50 to 100 | 50 to 100 | 0 to 80
5 | O=C(NCc1ccc(Cl)nc1)c1ccc(/C=C/C(c2cc(Cl)c(Cl)c(Cl)c2)C(F)(F)F)cc1Br (stereo not drawn) [AC31] | 50 to 100 | 50 to 100 | 0 to 80
6 | O=C(NC1CSC1)c1ccc(/C=C/C(c2cc(Cl)c(Cl)c(Cl)c2)C(F)(F)F)cc1Br (stereo not drawn) [AC32] | 50 to 100 | 50 to 100 | 0 to 80
7 | O=C(NC1CS(=O)(=O)C1)c1ccc(/C=C/C(c2cc(Cl)c(Cl)c(Cl)c2)C(F)(F)F)cc1Br (stereo not drawn) [AC33] | 50 to 100 | 50 to 100 | 0 to 80
8 | O=C(NC1CSC1)c1ccc(/C=C/C(c2cc(Cl)c(Cl)c(Cl)c2)C(F)(F)F)cc1C(F)(F)F (stereo not drawn) [AC34] | 50 to 100 | 50 to 100 | 0 to 80
9 | O=C(NCc1ccc(Cl)nc1)c1ccc(/C=C/C(c2cc(Cl)c(Cl)c(Cl)c2)C(F)(F)F)cc1C(F)(F)F (stereo not drawn) [AC36] | 50 to 100 | 50 to 100 | 0 to 80
10 | Cc1cc(/C=C/C(c2ccc(Cl)c(Cl)c2)C(F)(F)F)ccc1C(=O)NCc1ccc(Cl)nc1 (stereo not drawn) [AC37] | 50 to 100 | 50 to 100 | 0 to 80
11 | Cc1cc(/C=C/C(c2cc(Cl)cc(Cl)c2)C(F)(F)F)ccc1C(=O)NCc1cnccn1 (stereo not drawn) [AC43] | 50 to 100 | 50 to 100 | 0 to 80
12 | Cc1cc(/C=C/C(c2cc(Cl)cc(Cl)c2)C(F)(F)F)ccc1C(=O)NCc1ccc(Cl)cc1 (stereo not drawn) [AC48] | 50 to 100 | 50 to 100 | 0 to 80
13 | O=C(NCc1ccc(Cl)nc1)c1ccc(/C=C/C(c2cc(Cl)cc(Cl)c2)C(F)(F)F)cc1F (stereo not drawn) [AC49] | 50 to 100 | 50 to 100 | 0 to 80
14 | Cc1cc(/C=C/C(c2cc(Cl)cc(Cl)c2)C(F)(F)F)ccc1C(=O)NCC(=O)N(C)CC(F)(F)F (stereo not drawn) [AC51] | 50 to 100 | 50 to 100 | 0 to 80
15 | Cc1cc(/C=C/C(c2cc(Cl)c(F)c(Cl)c2)C(F)(F)F)ccc1C(=O)NC1CCOCC1 (stereo not drawn) [AC52] | 50 to 100 | 50 to 100 | 0 to 80
16 | Cc1cc(/C=C/C(c2cc(Cl)c(F)c(Cl)c2)C(F)(F)F)ccc1C(=O)NCc1ccc(Cl)cn1 (stereo not drawn) [AC53] | 50 to 100 | 50 to 100 | 0 to 80
17 | Cc1cc(/C=C/C(c2cc(Cl)c(F)c(Cl)c2)C(F)(F)F)ccc1C(=O)NCc1ccnc(Cl)c1 (stereo not drawn) [AC54] | 50 to 100 | 50 to 100 | 0 to 80
18 | CC(C)(C)OC(=O)CNC(=O)c1ccc(/C=C/C(c2cc(Cl)c(Cl)c(Cl)c2)C(F)(F)F)cc1Br (stereo not drawn) [AC58] | 50 to 100 | 50 to 100 | 0 to 80

Row | Compound | pest or weed control at 50 µg/cm2 [1] [%] | pest or weed control at 50 µg/cm2 [2] [%] | pest or weed control at 200 ppm [3] [%]
19 | Cc1cc(/C=C/C(c2cc(Cl)cc(Cl)c2)C(F)(F)F)ccc1C(=O)Nc1ccc(Cl)nc1 (stereo not drawn) [AC59] | 50 to 100 | 50 to 100 | 0 to 80
20 | O=C(NC1CSC1)c1ccc(/C=C/C(c2cc(Cl)cc(Cl)c2)C(F)(F)F)cc1F (stereo not drawn) [AC61] | 50 to 100 | 50 to 100 | 0 to 80
21 | O=C(NCc1ccc(Cl)nc1)c1ccc(/C=C/C(c2cc(Cl)c(F)c(Cl)c2)C(F)(F)F)cc1Br (stereo not drawn) [AC63] | 50 to 100 | 50 to 100 | 0 to 80
22 | O=C(CNC(=O)c1ccc(/C=C/C(c2cc(Cl)c(Cl)c(Cl)c2)C(F)(F)F)cc1Cl)NCC(F)(F)F (stereo not drawn) [AC64, (E)-2-Chloro-N-(2-oxo-2-((2,2,2-trifluoroethyl)amino)ethyl)-4-(4,4,4-trifluoro-3-(3,4,5-trichlorophenyl)but-1-en-1-yl)benzamide] | 50 to 100 | 50 to 100 | 0 to 80
23 | O=C(NCc1ccc(Cl)nc1)c1ccc(/C=C/C(c2cc(Cl)c(F)c(Cl)c2)C(F)(F)F)cc1F (stereo not drawn) [AC65] | 50 to 100 | 50 to 100 | 0 to 80
24 | O=C(CNC(=O)c1ccc(/C=C/C(c2cc(Cl)c(Cl)c(Cl)c2)C(F)(F)F)cc1Br)NCC(F)(F)F (stereo not drawn) [AC66] | 50 to 100 | 50 to 100 | 0 to 80
25 | O=C(NC1CSC1)c1ccc(/C=C/C(c2cc(Cl)c(F)c(Cl)c2)C(F)(F)F)cc1F (stereo not drawn) [AC67] | 50 to 100 | 50 to 100 | 0 to 80
26 | Cc1cc(/C=C/C(c2cc(Cl)c(F)c(Cl)c2)C(F)(F)F)ccc1C(=O)NCC(=O)NCC(F)(F)F (stereo not drawn) [AC69] | 50 to 100 | 50 to 100 | 80 to 100
27 | COc1cc(/C=C/C(c2cc(Cl)c(F)c(Cl)c2)C(F)(F)F)ccc1C(=O)NC1CSC1 (stereo not drawn) [AC71] | 50 to 100 | 50 to 100 | 0 to 80
28 | CCc1cc(/C=C/C(c2cc(Cl)c(F)c(Cl)c2)C(F)(F)F)ccc1C(=O)NCc1ccc(Cl)nc1 (stereo not drawn) [AC72] | 50 to 100 | 50 to 100 | 0 to 80
29 | O=C(NCc1ccc(C(F)(F)F)nc1)c1ccc(/C=C/C(c2cc(Cl)c(Cl)c(Cl)c2)C(F)(F)F)cc1Br (stereo not drawn) [AC75] | 50 to 100 | 50 to 100 | 0 to 80
30 | Cc1cc(/C=C/C(c2cc(Cl)c(F)c(Cl)c2)C(F)(F)F)ccc1C(=O)NCc1cc(Cl)ccn1 (stereo not drawn) [AC77] | 50 to 100 | 50 to 100 | 0 to 80
31 | Cc1cc(/C=C/C(c2cc(Cl)c(Cl)c(Cl)c2)C(F)(F)F)ccc1C(=O)NCC(=O)NCC(F)(F)F (stereo not drawn) [AC78] | 50 to 100 | 50 to 100 | 80 to 100
32 | O=C(CNC(=O)c1ccc(/C=C/C(c2cc(Cl)c(F)c(Cl)c2)C(F)(F)F)cc1Br)NCC(F)(F)F (stereo not drawn) [AC79, (E)-2-Bromo-4-(3-(3,5-dichloro-4-fluorophenyl)-4,4,4-trifluorobut-1-en-1-yl)-N-(2-oxo-2-((2,2,2-trifluoroethyl)amino)ethyl)benzamide] | 50 to 100 | 50 to 100 | 80 to 100
33 | CCc1cc(/C=C/C(c2cc(Cl)c(F)c(Cl)c2)C(F)(F)F)ccc1C(=O)NCC(=O)NCC(F)(F)F (stereo not drawn) [AC80] | 50 to 100 | 50 to 100 | 0 to 80
34 | O=C(NC1CS(=O)(=O)C1)c1ccc(/C=C/C(c2cc(Cl)cc(Cl)c2)C(F)(F)F)cc1F (stereo not drawn) [AC83, (E)-4-(3-(3,5-Dichlorophenyl)-4,4,4-trifluorobut-1-en-1-yl)-N-(1,1-dioxidothietan-3-yl)-2-fluorobenzamide] | 50 to 100 | 50 to 100 | 0 to 80
35 | COc1cc(/C=C/C(c2cc(Cl)c(F)c(Cl)c2)C(F)(F)F)ccc1C(=O)NC1CS(=O)(=O)C1 (stereo not drawn) [AC85] | 50 to 100 | 50 to 100 | 0 to 80
36 | O=C(NC1C[S+]([O-])C1)c1ccc(/C=C/C(c2cc(Cl)c(F)c(Cl)c2)C(F)(F)F)cc1F (stereo not drawn) [AC87] | 50 to 100 | 50 to 100 | 0 to 80
